Reference: paper PMC7802075 (ACS Infectious Diseases, 2020)

target: T1, LmjIPCS (inositol phosphorylceramide synthase from L. major) (Leishmania major, UniProt E9AFX2); experiment: biochemical; format: biochemical; set-up: inhibition: dose or concentration left out as unconfirmed; details: not given
T1 sequence (E9AFX2 1-338): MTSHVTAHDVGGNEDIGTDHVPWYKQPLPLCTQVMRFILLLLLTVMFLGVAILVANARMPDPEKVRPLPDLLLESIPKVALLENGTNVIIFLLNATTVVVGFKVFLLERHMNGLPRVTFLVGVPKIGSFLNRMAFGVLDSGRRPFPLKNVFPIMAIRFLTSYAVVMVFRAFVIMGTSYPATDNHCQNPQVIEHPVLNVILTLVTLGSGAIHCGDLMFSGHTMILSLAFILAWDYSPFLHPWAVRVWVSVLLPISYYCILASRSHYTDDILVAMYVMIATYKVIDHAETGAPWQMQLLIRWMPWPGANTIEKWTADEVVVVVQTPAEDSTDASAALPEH

Row | SMILES | 20mM inhibition LmjIPCS [%]
1 | CC1=CC(=O)c2ccccc2C1=O [MENADIONE] | 43
2 | CN1CCC(OC(c2ccccc2)c2ccccc2)CC1 | 65
3 | CC(Cc1cccc(C(F)(F)F)c1)NCCOC(=O)c1ccccc1 (centres unmarked) [BENFLUOREX] | 65
4 | C[C@]12CCC3c4ccc(OC(=O)CCC(=O)O)cc4CCC3C1CCC2=O (some centres unmarked) [ESTRONE HEMISUCCINATE] | 12
5 | CNCCCN1c2ccccc2CCc2ccccc21 [DESIPRAMINE] | 64
6 | COc1cc2c(cc1O)CCNC2C (centres unmarked) [SALSOLINE] | 12
7 | Oc1c(Cl)cc(Cl)cc1Sc1cc(Cl)cc(Cl)c1O [BITHIONOL] | 41
8 | O=C(CC(=O)c1ccccc1)c1ccccc1 [DIBENZOYLMETHANE] | 44
9 | CC(=O)N[C@@H](CS)C(=O)O [ACETYLCYSTEINE] | 53
10 | CC1=C(C(=O)O)N2C(=O)[C@@H](NC(=O)[C@H](N)C3=CCC=CC3)[C@H]2SC1 [CEPHRADINE] | 40
11 | Nc1ccc(C(=O)O)c(O)c1 [AMINOSALICYLATE SODIUM] | 43
12 | CCOc1ccc(NC(C)=O)cc1 [PHENACETIN] | 38
13 | CN(C)[C@@H]1C(O)=C(C(N)=O)C(=O)[C@@]2(O)C(O)=C3C(=O)c4c(O)cccc4[C@@](C)(O)[C@H]3C[C@@H]12 [TETRACYCLINE] | 36
14 | N=C(N)N/N=C/c1c(Cl)cccc1Cl [GUANABENZ ACETATE] | 55

same assay, conditions: NINDS set screen, single concentration printed as 20mM

Row | SMILES | 20mM inhibition LmjIPCS [%]
15 | COc1cc(N)c(Cl)cc1C(=O)NC1CCN(Cc2ccccc2)CC1 [CLEBOPRIDE] | 47
16 | CN(Cc1cc(Br)cc(Br)c1N)C1CCCCC1 [BROMHEXINE] | 53
17 | CC(C)=CC1C(C(=O)O)C1(C)C (centres unmarked) [CHRYSANTHEMIC ACID] | 69

same assay, conditions: NINDS set screen; read-out: inhibition LmjIPCS

Row | SMILES | inhibition [%]
18 | C[C@H]1c2cccc(O)c2C(=O)C2=C(O)[C@]3(O)C(=O)C(C(N)=O)=C(O)[C@@H](N(C)C)[C@@H]3[C@@H](O)[C@@H]21 [DOXYCYCLINE] | 30
19 | Cc1cc(-c2ccccc2)nnc1NCCN1CCOCC1 [MINAPRINE] | 25
20 | CC1=NCCc2c1[nH]c1cc(O)ccc21 [HARMALOL] | 17
21 | O=C(O)c1nc2cc(Cl)c(Cl)cc2nc1O | -14
22 | CC(C)NNC(=O)c1ccncc1 [IPRONIAZID] | 31

same assay, conditions: read-out: 20mM inhibition LmjIPCS

Row | SMILES | inhibition at 20000 µM [%]
23 | C#C[C@]1(OC(C)=O)CC[C@H]2[C@@H]3CCC4=CC(=O)CC[C@@H]4[C@H]3CC[C@@]21C [NORETHINDRONE ACETATE] | 30
24 | CC(=O)N[C@@H](Cc1c[nH]c2ccccc12)C(=O)O [ACETYLTRYPTOPHAN] | -17
25 | CC(=O)N[C@@H](CC(=O)O)C(=O)O [N-ACET[…]] | -3
26 | C[C@@H]1O[C@@H](O[C@H]2C[C@@H](O)[C@]3(CO)[C@H]4[C@H](O)C[C@]5(C)[C@@H](C6=CC(=O)OC6)CC[C@]5(O)[C@@H]4CC[C@]3(O)C2)[C@H](O)[C@H](O)[C@H]1O [OUABAIN] | 1.15
27 | COC1=C[C@@H]2[C@@H]3Cc4ccc(OC)c(O)c4[C@]2(CCN3C)CC1=O [SINOMENINE] | 8
28 | CC(=O)NC(C(=O)O)C(C)(C)SN=O (centres unmarked) | 9
29 | Oc1cccc2cccnc12 [OXYQUINOLINE] | 14
30 | O[C@@H]1CCCC[C@H]1N1CCC(c2ccccc2)CC1 (racemic) [VESAMICOL] | 14
31 | O=C1NS(=O)(=O)c2ccccc21 [SACCHARIN] | 3.67
32 | CCOC(=O)[C@H](CCc1ccccc1)N[C@H]1CCc2ccccc2N(CC(=O)O)C1=O [BENAZEPRIL] | -0.0339
33 | CO[C@H]1/C=C/O[C@@]2(C)Oc3c(C)c(O)c4c(O)c(c5c(nc6cc(C)ccn65)c4c3C2=O)NC(=O)/C(C)=C\C=C\[C@H](C)[C@H](O)[C@@H](C)[C@@H](O)[C@@H](C)[C@H](OC(C)=O)[C@@H]1C [RIFAXIMIN] | 6
34 | C=C(C)[C@@H]1[C@H]2OC(=O)[C@@H]1[C@]1(O)C[C@H]3O[C@]34C(=O)O[C@H]2[C@]14C [PICROTOXININ] | 13
35 | O=C1C=C2C=C[C@@H]3C[C@@]2(O1)[C@H]1CCCCN31 [SECURININE] | 11
36 | CCN(CC)C(=O)c1cccc(C)c1 [DIETHYLTOLUAMIDE] | 17
37 | CC(C(=O)O)c1ccc(N2Cc3ccccc3C2=O)cc1 (centres unmarked) [INDOPROFEN] | -1.7
38 | COc1ccc(-c2cc(C(F)F)nn2-c2ccc(S(N)(=O)=O)cc2)cc1F [DERACOXIB] | 28
39 | CC(=O)c1c(O)c(C)c(O)c2c1OC1=CC(=O)C(C(C)=O)C(=O)C12C (centres unmarked) [USNIC ACID] | 29
40 | Cn1nnnc1SCC1=C(C(=O)O)N2C(=O)[C@@H](NC(=O)[C@H](O)c3ccccc3)[C@H]2SC1 [CEFAMANDOLE] | 10
41 | CC(=O)OCC(=O)[C@@]1(O)CC[C@H]2[C@@H]3CCC4=CC(=O)CC[C@]4(C)[C@H]3[C@@H](O)C[C@@]21C [HYDROCORTISONE ACETATE] | 7
42 | Cc1onc(-c2ccccc2)c1C(=O)N[C@@H]1C(=O)N2[C@@H]1SC(C)(C)[C@@H]2C(=O)O [OXACILLIN] | 16

same assay, conditions: read-out: inhibition LmjIPCS

Row | SMILES | inhibition [%]
43 | N[C@@H](C(=O)N[C@@H]1C(=O)N2C(C(=O)O)=C(Cl)CS[C@H]12)c1ccccc1 [CEFACLOR] | 10
44 | CC(=O)N(O)CCCCCNC(=O)CCC(=O)N(O)CCCCCNC(=O)CCC(=O)N(O)CCCCCN [DEFEROXAMINe] | -4.52
45 | [H]/N=C(/N)N[C@H]1[C@H](O)[C@@H](O)[C@H](O[C@@H]2O[C@@H](C)[C@](O)(C=O)[C@H]2O[C@@H]2O[C@@H](CO)[C@H](O)[C@@H](O)[C@@H]2NC)[C@@H](N/C(N)=N\[H])[C@@H]1O [STREPTOMYCIN] | -0.116
46 | Oc1cccc(O)c1 [RESORCINOL] | 1.29
47 | CN1C[C@H](CNC(=O)OCc2ccccc2)C[C@@H]2c3cccc4c3c(cn4C)C[C@H]21 [METERGOLINE] | 11
48 | COC(=O)C1=C(C)NC(C)=C(C(=O)OCCN(C)Cc2ccccc2)C1c1cccc([N+](=O)[O-])c1 (centres unmarked) [NICARDIPINE] | -15
49 | CCN(CC)C(=O)N1CCN(C)CC1 [DIETHYLCARBAMAZINE] | -3
50 | CN(Cc1cnc2nc(N)nc(N)c2n1)c1ccc(C(=O)N[C@@H](CCC(=O)O)C(=O)O)cc1 [METHOTREXATE] | 8
51 | COc1ccc2c(c1)c(CC(=O)O)c(C)n2C(=O)c1ccc(Cl)cc1 [INDOMETHACIN] | -3.42
52 | O=C1C[C@@H](c2ccc(O)cc2)Oc2cc(O)cc(O)c21 [NARINGENIN] | 17
53 | CCn1cc(C(=O)O)c(=O)c2cnc(N3CCCC3)nc21 [PIROMIDIC ACID] | 8.53
54 | COc1ccc(C(=O)c2ccccc2O)c(O)c1 [DIOXYBENZONE] | 11

same assay, conditions: screening of NINDS set, sheet Screen 1; read-out: inhibition LmjIPCS

Row | SMILES | inhibition [%]
55 | C[C@](N)(Cc1ccc(O)c(O)c1)C(=O)O [METHYLDOPA] | 8
56 | CO/N=C(\C(=O)N[C@@H]1C(=O)N2C(C(=O)O)=C(CSc3nc(=O)c(=O)[nH]n3C)CS[C@H]12)c1csc(N)n1 [CEFTRIAXONE] | 5.34
57 | CN(C)CCCO[C@@H]1[C@H]2OC(C)(C)O[C@H]2O[C@@H]1[C@H](O)CO [AMIPRILOSE] | 4
58 | O=C(O)c1ccc(S(=O)(=O)N(Cl)Cl)cc1 [HALAZONE] | 10

same assay, conditions: single concentration 20mM as printed; screening of NINDS set, sheet Screen 1

Row | SMILES | 20mM inhibition LmjIPCS [%]
59 | CC(=O)[C@@]1(O)CC[C@H]2[C@@H]3C=C(Cl)C4=CC(=O)[C@@H]5C[C@@H]5[C@]4(C)[C@H]3CC[C@@]21C [CYPROTERONE] | 10
